Common to all, as to assay type: functional
The subject of test [1] is Escherichia coli. Put plainly: Antibacterial activity against Escherichia coli X580 at 2 mg/ml after overnight incubation by hole plate method relative to cephalosporin C.
Test [2] deals with Escherichia coli. Put plainly: Antibacterial activity against Escherichia coli X580 at 2 mg/ml after overnight incubation by hole plate method. Particulars: read-out: DIZ.
In test [3] the test system is Staphylococcus aureus. Put plainly: Antibacterial activity against Staphylococcus aureus NCTC 6571 at 2 mg/ml after overnight incubation by hole plate method relative to cephalosporin C.
The subject of test [4] is Staphylococcus aureus. The test is described as follows: Antibacterial activity against Staphylococcus aureus NCTC 6571 at 2 mg/ml after overnight incubation by hole plate method. Particulars: read-out: DIZ.

`COc1ccc(-c2cc(-c3ccc(-n4nc5c(c4C)N(C)S(=O)(=O)c4ccccc4-5)cc3)nc(N)n2)cc1OC`: in the test with Escherichia coli [1], the “fold change (FC)” value turned out to be 4.13. The zone of inhibition at 2000 µg/mL in the test with Escherichia coli [2] was 14 mm.
On the same counts, the results for `COc1ccc(-c2cc(-c3ccc(-n4nc5c(c4C)N(C)S(=O)(=O)c4ccccc4-5)cc3)nc(N)n2)c(OC)c1OC` are 19.06 and 24 mm.
On the same counts, the results for `COc1cc(-c2cc(-c3ccc(-n4nc5c(c4C)N(C)S(=O)(=O)c4ccccc4-5)cc3)nc(N)n2)cc(OC)c1OC` are 3.55 and 13 mm.
The like results for `Cc1c2c(nn1-c1ccc(-c3cc(-c4ccc([N+](=O)[O-])cc4)nc(N)n3)cc1)-c1ccccc1S(=O)(=O)N2C` were, in that order, 4.13 and 14 mm.
With `Cc1c2c(nn1-c1ccc(-c3cc(-c4ccccc4)nc(N)n3)cc1)-c1ccccc1S(=O)(=O)N2C`, the “fold change (FC)” value in the test with Escherichia coli [1] was determined as 4.13. Moreover, the zone of inhibition at 2000 µg/mL with Escherichia coli [2] came to 14 mm.
For the compound `Cc1ccc(-c2cc(-c3ccc(-n4nc5c(c4C)N(C)S(=O)(=O)c4ccccc4-5)cc3)nc(N)n2)cc1`, the “fold change (FC)” value in the test with Escherichia coli [1] amounted to 4.13. Besides, the zone of inhibition at 2000 µg/mL in the test on Escherichia coli [2] was 14 mm.
Turning to `Cc1cc(C)c(-c2cc(-c3ccc(-n4nc5c(c4C)N(C)S(=O)(=O)c4ccccc4-5)cc3)nc(N)n2)c(C)c1`, in the test with Escherichia coli [1], the “fold change (FC)” value is reported as 4.81. The zone of inhibition at 2000 µg/mL with Escherichia coli [2] came out at 15 mm.
In the case of `Cc1ccc(C(=O)/C=C/c2ccc(-n3nc4c(c3C)N(C)S(=O)(=O)c3ccccc3-4)cc2)cc1`, in the test on Escherichia coli [1], the “fold change (FC)” value is 3.55. Also, the zone of inhibition at 2000 µg/mL in the test on Escherichia coli [2] was 13 mm.
For `Cc1cc(C)c(C(=O)/C=C/c2ccc(-n3nc4c(c3C)N(C)S(=O)(=O)c3ccccc3-4)cc2)c(C)c1`, in the test with Escherichia coli [1], the “fold change (FC)” value is reported as 4.81. Moreover, in the test on Escherichia coli [2], the zone of inhibition at 2000 µg/mL turned out to be 15 mm.
The like results for `Cc1c2c(nn1-c1ccc(-c3cc(-c4ccc(F)cc4)nc(N)n3)cc1)-c1ccccc1S(=O)(=O)N2C` were, in that order, 4.81 and 15 mm.
On the same counts, the results for `Cc1c2c(nn1-c1ccc(-c3cc(-c4ccc(Cl)cc4)nc(N)n3)cc1)-c1ccccc1S(=O)(=O)N2C` are 5.61 and 16 mm.
On the same counts, the results for `Cc1c2c(nn1-c1ccc(-c3cc(-c4cccc(Cl)c4)nc(N)n3)cc1)-c1ccccc1S(=O)(=O)N2C` are 5.61 and 16 mm.
On to `Cc1c2c(nn1-c1ccc(-c3cc(-c4ccc(Br)cc4)nc(N)n3)cc1)-c1ccccc1S(=O)(=O)N2C`, for which the “fold change (FC)” value in the test with Staphylococcus aureus [3] was determined as 508; in the test with Escherichia coli [1], 8.87. The zone of inhibition at 2000 µg/mL in the test on Staphylococcus aureus [4] was determined as 17 mm; in the test with Escherichia coli [2], 19 mm.
`Cc1c2c(nn1-c1ccc(-c3cc(-c4cccc(Br)c4)nc(N)n3)cc1)-c1ccccc1S(=O)(=O)N2C`: the “fold change (FC)” value in the test on Escherichia coli [1] is 4.13. Moreover, the zone of inhibition at 2000 µg/mL in the test on Escherichia coli [2] worked out at 14 mm.
Turning to `COc1ccccc1-c1cc(-c2ccc(-n3nc4c(c3C)N(C)S(=O)(=O)c3ccccc3-4)cc2)nc(N)n1`, the “fold change (FC)” value in the test on Staphylococcus aureus [3] was determined as 1390; with Escherichia coli [1], 10.34. The zone of inhibition at 2000 µg/mL turned out to be 22 mm with Staphylococcus aureus [4] and 20 mm in the test with Escherichia coli [2].
In the case of `Cc1c2c(nn1-c1ccc(C(=O)/C=C/c3ccc(F)cc3)cc1)-c1ccccc1S(=O)(=O)N2C`, the “fold change (FC)” value in the test with Escherichia coli [1] worked out at 4.13. In the test on Escherichia coli [2], the zone of inhibition at 2000 µg/mL was found to be 14 mm.
The like results for `Cc1c2c(nn1-c1ccc(C(=O)/C=C/c3ccc(Cl)cc3)cc1)-c1ccccc1S(=O)(=O)N2C` were, in that order, 3.55 and 13 mm.
On the same counts, the results for `Cc1c2c(nn1-c1ccc(C(=O)/C=C/c3cccc(Cl)c3)cc1)-c1ccccc1S(=O)(=O)N2C` are 4.81 and 15 mm.
On the same counts, the results for `Cc1c2c(nn1-c1ccc(C(=O)/C=C/c3ccc(Cl)cc3Cl)cc1)-c1ccccc1S(=O)(=O)N2C` are 5.61 and 16 mm.
For the compound `Cc1c2c(nn1-c1ccc(C(=O)/C=C/c3ccc(Br)cc3)cc1)-c1ccccc1S(=O)(=O)N2C`, the “fold change (FC)” value with Escherichia coli [1] was 4.81. Besides, in the test on Escherichia coli [2], the zone of inhibition at 2000 µg/mL stood at 15 mm.
On the same counts, the results for `Cc1c2c(nn1-c1ccc(C(=O)/C=C/c3cccc(Br)c3)cc1)-c1ccccc1S(=O)(=O)N2C` are 6.53 and 17 mm.
Regarding `COc1ccccc1/C=C/C(=O)c1ccc(-n2nc3c(c2C)N(C)S(=O)(=O)c2ccccc2-3)cc1`, the “fold change (FC)” value with Escherichia coli [1] came to 5.61. In addition, the zone of inhibition at 2000 µg/mL in the test on Escherichia coli [2] worked out at 16 mm.
On the same counts, the results for `COc1ccc(/C=C/C(=O)c2ccc(-n3nc4c(c3C)N(C)S(=O)(=O)c3ccccc3-4)cc2)cc1OC` are 4.81 and 15 mm.
The like results for `COc1ccc(/C=C/C(=O)c2ccc(-n3nc4c(c3C)N(C)S(=O)(=O)c3ccccc3-4)cc2)c(OC)c1OC` were, in that order, 4.13 and 14 mm.
The like results for `Cc1c2c(nn1-c1ccc(C(=O)/C=C/c3ccc([N+](=O)[O-])cc3)cc1)-c1ccccc1S(=O)(=O)N2C` were, in that order, 4.81 and 15 mm.
Regarding `Cc1c2c(nn1-c1ccc(/C=C/C(=O)c3ccc(Cl)cc3)cc1)-c1ccccc1S(=O)(=O)N2C`, the “fold change (FC)” value in the test with Escherichia coli [1] is 4.13. Further, the zone of inhibition at 2000 µg/mL in the test with Escherichia coli [2] was 14 mm.
On the same counts, the results for `Cc1c2c(nn1-c1ccc(/C=C/C(=O)c3ccc(Br)cc3)cc1)-c1ccccc1S(=O)(=O)N2C` are 5.61 and 16 mm.
In the case of `COc1ccc(C(=O)/C=C/c2ccc(-n3nc4c(c3C)N(C)S(=O)(=O)c3ccccc3-4)cc2)cc1`, the “fold change (FC)” value in the test with Escherichia coli [1] is reported as 4.81. The zone of inhibition at 2000 µg/mL in the test on Escherichia coli [2] was 15 mm.

Values taken from ChEMBL document CHEMBL3046462, “Synthesis and anti-bacterial activities of some novel pyrazolobenzothiazine-based chalcones and their pyrimidine derivatives” (2012).
